What is called IC50 is the point on the concentration scale where inhibition reaches its midpoint.

This passage reports IC50 results from patent publication US11136317B2, “NADPH oxidase 4 inhibitors” (ACTELION PHARMACEUTICALS LTD, priority 2015, dated 2021).

Some results are limits rather than exact numbers.

Chain of horseradish peroxidase / H2O2 (P00433 31-338): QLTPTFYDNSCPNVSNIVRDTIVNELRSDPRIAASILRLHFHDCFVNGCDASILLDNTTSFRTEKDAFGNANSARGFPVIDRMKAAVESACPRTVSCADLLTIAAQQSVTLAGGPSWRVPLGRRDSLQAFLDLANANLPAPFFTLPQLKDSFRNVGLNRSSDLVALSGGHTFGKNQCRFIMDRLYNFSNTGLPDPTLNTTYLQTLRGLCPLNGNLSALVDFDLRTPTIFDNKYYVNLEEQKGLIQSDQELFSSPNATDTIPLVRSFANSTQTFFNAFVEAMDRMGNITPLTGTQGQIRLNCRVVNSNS

The target of one experiment is T1, human NOX4 (Homo sapiens, UniProt Q9NPH5).
T1 construct: The full-length human NOX4 (NM_016931.3) transcript was cloned; expressed in transfected cells
T1 sequence (Q9NPH5 1-578): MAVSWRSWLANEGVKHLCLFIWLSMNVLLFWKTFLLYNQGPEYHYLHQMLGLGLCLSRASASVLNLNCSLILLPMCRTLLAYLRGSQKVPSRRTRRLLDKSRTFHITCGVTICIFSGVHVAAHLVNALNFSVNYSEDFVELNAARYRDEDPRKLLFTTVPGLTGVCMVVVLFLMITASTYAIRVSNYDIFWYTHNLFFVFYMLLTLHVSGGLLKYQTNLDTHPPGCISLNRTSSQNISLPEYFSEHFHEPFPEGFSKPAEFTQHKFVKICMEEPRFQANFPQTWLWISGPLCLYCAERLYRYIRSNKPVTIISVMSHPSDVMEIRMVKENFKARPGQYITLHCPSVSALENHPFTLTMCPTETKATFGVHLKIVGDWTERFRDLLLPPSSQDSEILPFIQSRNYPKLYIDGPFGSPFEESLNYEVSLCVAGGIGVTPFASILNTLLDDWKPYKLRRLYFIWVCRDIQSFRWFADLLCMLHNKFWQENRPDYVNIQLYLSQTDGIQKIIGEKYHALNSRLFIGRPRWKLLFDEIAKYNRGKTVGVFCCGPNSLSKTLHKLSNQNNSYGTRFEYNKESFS
T1 sequence (P13498 1-195 partner): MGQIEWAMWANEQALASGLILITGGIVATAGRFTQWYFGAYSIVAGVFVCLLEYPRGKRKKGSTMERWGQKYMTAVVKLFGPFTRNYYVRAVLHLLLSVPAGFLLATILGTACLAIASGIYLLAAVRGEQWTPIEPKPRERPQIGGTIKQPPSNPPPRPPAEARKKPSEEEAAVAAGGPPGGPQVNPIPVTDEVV
Put plainly: Amplex Red activity assay (cellular H2O2 formation in hNOX4 T-REx-293 cells). In kind it is cell-based. Conditions: tet-induced 24 h, extracellular H2O2 by Amplex Red, 60 min 25° C., geometric mean if determined several times. The method in brief: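 Tet-induced (1 μg/mL, 24 h) HEK293 T-REx cells stably expressing full-length human NOX4, 20 000 cells/well, exposed to compounds (10 concentrations, 50 μM to 100 nM; 1.25% DMSO) for 60 min at 25°C. Extracellular H2O2 detected by Amplex Red resorufin fluorescence (ex 550/em 600 nm) versus vehicle; IC50 calculated.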
Consider “2,3-Dihydro-benzofuran-5-carboxylic acid (2-dimethylamino-benzothiazol-5-yl)-amide [Example 86]”, for which the IC50 came out at 2.68 µM. The same measure, in the same setting: the figure for “2,3-Dihydro-benzofuran-5-carboxylic acid [2-(1-oxa-7-aza-spiro[3.5]non-7-yl)-benzooxazol-5-yl]-amide [Example 28]” is 0.695 µM; for `CN1CCN(c2nc3cc(NC(=O)c4ccc5c(c4)N(C)CCO5)ccc3o2)CC1` [Example 193, 4-Methyl-3,4-dihydro-2H-benzo[1,4]oxazine-6-carboxylic acid [2-(4-methyl-piperazin-1-yl)-benzooxazol-5-yl]-amide] it is 4.04 µM; for `CCN(CC)c1nc2cc(NC(=O)c3ccc4c(c3)N(C)CCO4)ccc2o1` [Example 194, 4-Methyl-3,4-dihydro-2H-benzo[1,4]oxazine-6-carboxylic acid (2-diethylamino-benzooxazol-5-yl)-amide] it is 3.58 µM.

Turning to `CN1CCOc2ccc(C(=O)Nc3ccc4oc(N(C5CC5)C5COC5)nc4c3)cc21` [Example 195, 4-Methyl-3,4-dihydro-2H-benzo[1,4]oxazine-6-carboxylic acid [2-(cyclopropyl-oxetan-3-yl-amino)-benzooxazol-5-yl]-amide], the IC50 was 4.44 µM. For the compound `O=C(Nc1ccc2c(c1)CCO2)c1ccc2sc(N3CCCCC3)nc2c1` [Example 196, 2-Piperidin-1-yl-benzothiazole-5-carboxylic acid (2,3-dihydro-benzofuran-5-yl)-amide], the IC50 was determined as 2.56 µM. Turning to `O=C(Nc1ccc2c(c1)CCO2)c1ccc2sc(N3CCC34COC4)nc2c1` [Example 197, 2-(6-Oxa-1-aza-spiro[3.3]hept-1-yl)-benzothiazole-5-carboxylic acid (2,3-dihydro-benzofuran-5-yl)-amide], the IC50 amounted to 0.728 µM. The same measure, in the same setting: to `O=C(Nc1ccc2c(c1)CCO2)c1ccc2sc(N3CCC(F)(F)CC3)nc2c1` [Example 198, 2-(4,4-Difluoro-piperidin-1-yl)-benzothiazole-5-carboxylic acid (2,3-dihydro-benzofuran-5-yl)-amide] belongs 45.2 µM; to `O=C(Nc1ccc2c(c1)CCO2)c1ccc2sc(N3CCS(=O)(=O)CC3)nc2c1` [Example 199, 2-(1,1-Dioxo-thiomorpholin-4-yl)-benzothiazole-5-carboxylic acid (2,3-dihydro-benzofuran-5-yl)-amide], 23.9 µM; to `COC1CCN(c2nc3cc(C(=O)Nc4ccc5c(c4)CCO5)ccc3s2)CC1` [Example 200, 2-(4-Methoxy-piperidin-1-yl)-benzothiazole-5-carboxylic acid (2,3-dihydro-benzofuran-5-yl)-amide], 2.75 µM.

In the case of `CN1CCN(c2nc3cc(C(=O)Nc4ccc5c(c4)CCO5)ccc3s2)CC1` [Example 201, 2-(4-Methyl-piperazin-1-yl)-benzothiazole-5-carboxylic acid (2,3-dihydro-benzofuran-5-yl)-amide], the IC50 is 2.87 µM. For the compound `O=C(Nc1ccc2c(c1)CCO2)c1ccc2sc(N3CCC34CCOC4)nc2c1` (centres unmarked) [Example 202, 2-(6-Oxa-1-aza-spiro[3.4]oct-1-yl)-benzothiazole-5-carboxylic acid (2,3-dihydro-benzofuran-5-yl)-amide], the IC50 was 0.729 µM.

As to `O=C(Nc1ccc2c(c1)OCCO2)c1ccc2sc(N3CCC34COC4)nc2c1` [Example 203, 2-(6-Oxa-1-aza-spiro[3.3]hept-1-yl)-benzothiazole-5-carboxylic acid (2,3-dihydro-benzo[1,4]dioxin-6-yl)-amide], the IC50 came out at 1.84 µM. On the same count and under the same terms, the figure for `O=C(Nc1ccc2c(c1)OCCO2)c1ccc2sc(N3CCC(F)(F)CC3)nc2c1` [Example 204, 2-(4,4-Difluoro-piperidin-1-yl)-benzothiazole-5-carboxylic acid (2,3-dihydro-benzo[1,4]dioxin-6-yl)-amide] is 25.5 µM; for `COC1CCN(c2nc3cc(C(=O)Nc4ccc5c(c4)OCCO5)ccc3s2)CC1` [Example 205, 2-(4-Methoxy-piperidin-1-yl)-benzothiazole-5-carboxylic acid (2,3-dihydro-benzo[1,4]dioxin-6-yl)-amide] it is 26.8 µM; for `CN1CCN(c2nc3cc(C(=O)Nc4ccc5c(c4)OCCO5)ccc3s2)CC1` [Example 206, 2-(4-Methyl-piperazin-1-yl)-benzothiazole-5-carboxylic acid (2,3-dihydro-benzo[1,4]dioxin-6-yl)-amide] it is 21.2 µM. Take `O=C(Nc1ccc2c(c1)OCCO2)c1ccc2sc(N3CCCCC3)nc2c1` [Example 207, 2-Piperidin-1-yl-benzothiazole-5-carboxylic acid (2,3-dihydro-benzo[1,4]dioxin-6-yl)-amide]: the IC50 stood at 12.8 µM. With `O=C(Nc1ccc2c(c1)OCCO2)c1ccc2sc(N3CCC34CCOC4)nc2c1` (centres unmarked) [Example 208, 2-(6-Oxa-1-aza-spiro[3.4]oct-1-yl)-benzothiazole-5-carboxylic acid (2,3-dihydro-benzo[1,4]dioxin-6-yl)-amide], the IC50 was 2.71 µM. As for `O=C(Nc1ccc2c(c1)OCO2)c1ccc2sc(N3CCC34COC4)nc2c1` [Example 209, 2-(6-Oxa-1-aza-spiro[3.3]hept-1-yl)-benzothiazole-5-carboxylic acid benzo[1,3]dioxol-5-ylamide], the IC50 amounted to 1.5 µM. On the same count and under the same terms, to `COC1CCN(c2nc3cc(C(=O)Nc4ccc5c(c4)OCO5)ccc3s2)CC1` [Example 210, 2-(4-Methoxy-piperidin-1-yl)-benzothiazole-5-carboxylic acid benzo[1,3]dioxol-5-ylamide] belongs 6.9 µM. `CN1CCN(c2nc3cc(C(=O)Nc4ccc5c(c4)OCO5)ccc3s2)CC1` [Example 211, 2-(4-Methyl-piperazin-1-yl)-benzothiazole-5-carboxylic acid benzo[1,3]dioxol-5-ylamide]: the IC50 worked out at 8.9 µM.

In another experiment the target is horseradish peroxidase / H2O2 (Armoracia rusticana, UniProt P00433). The experiment in a line: Amplex Red counter screen assay (cells replaced by H2O2). The format is biochemical. Conditions: counter screen: H2O2-generating cells replaced by 1562.5 nM H2O2 in 1×PBS; read-out: IC50 Control. Here is the method:
In order to identify compounds that interfere with the activity assay either by inhibiting the activity of horseradish peroxidase or by directly interacting with the formed H2O2 a counter screen assay was established. This control assay is almost identical to the described Amplex Red activity assay with the only difference that the H2O2— generating cells are replaced by 1562.5 nM H2O2 in 1×PBS.
Turning to “2,3-Dihydro-benzofuran-5-carboxylic acid (2-dimethylamino-benzothiazol-5-yl)-amide [Example 86]”, the IC50 was > 50 µM. Same read-out and setting: to “2,3-Dihydro-benzofuran-5-carboxylic acid [2-(1-oxa-7-aza-spiro[3.5]non-7-yl)-benzooxazol-5-yl]-amide [Example 28]” belongs > 50 µM.
